Among the data in patent US20240376099A1, “COMPOUNDS AND COMPOSITIONS AS INHIBITORS OF ENDOSOMAL TOLL-LIKE RECEPTORS” (Novartis AG, priority 2016, published 2024) are IC50 values, retold here.

In the experiment the target is T1, TLR8 (Homo sapiens, UniProt Q9NR97).
T1 sequence (Q9NR97 27-1041): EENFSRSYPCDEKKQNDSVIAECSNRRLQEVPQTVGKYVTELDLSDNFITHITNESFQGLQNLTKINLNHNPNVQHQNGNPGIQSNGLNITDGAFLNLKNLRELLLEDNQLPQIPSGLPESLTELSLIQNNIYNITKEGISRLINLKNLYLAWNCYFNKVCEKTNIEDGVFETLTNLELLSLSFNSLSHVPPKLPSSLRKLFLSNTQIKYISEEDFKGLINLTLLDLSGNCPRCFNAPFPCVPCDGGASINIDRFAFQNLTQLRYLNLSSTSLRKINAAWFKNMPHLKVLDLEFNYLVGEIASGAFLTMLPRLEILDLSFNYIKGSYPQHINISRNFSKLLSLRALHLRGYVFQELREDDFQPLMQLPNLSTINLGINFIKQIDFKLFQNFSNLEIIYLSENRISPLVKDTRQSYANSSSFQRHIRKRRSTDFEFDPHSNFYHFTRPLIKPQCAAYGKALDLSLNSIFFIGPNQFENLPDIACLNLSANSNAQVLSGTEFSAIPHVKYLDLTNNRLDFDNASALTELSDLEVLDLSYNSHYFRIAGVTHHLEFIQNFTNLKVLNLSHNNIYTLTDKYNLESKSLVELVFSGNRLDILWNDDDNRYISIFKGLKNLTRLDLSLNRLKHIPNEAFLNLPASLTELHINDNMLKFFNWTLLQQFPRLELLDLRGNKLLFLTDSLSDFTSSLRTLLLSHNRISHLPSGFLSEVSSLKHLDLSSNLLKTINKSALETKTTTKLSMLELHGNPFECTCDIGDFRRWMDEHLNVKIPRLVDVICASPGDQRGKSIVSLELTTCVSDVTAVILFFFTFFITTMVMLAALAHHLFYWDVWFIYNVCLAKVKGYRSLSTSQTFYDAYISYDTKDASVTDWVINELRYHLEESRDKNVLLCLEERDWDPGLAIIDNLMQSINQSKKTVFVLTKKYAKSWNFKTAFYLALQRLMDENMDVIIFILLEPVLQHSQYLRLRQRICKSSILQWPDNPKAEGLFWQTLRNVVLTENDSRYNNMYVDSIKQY
The experiment is described as follows: huPBMC TLR8 Antagonist IL-6 TR-FRET Assay. It counts as cell-based. On the set-up: Fresh blood was collected from normal human donors; endogenous in cells; host or cells: human PBMCs from fresh donor blood. The note with it: human PBMCs stimulated with ssRNA40 1 μg/ml (DOTAP), 14-16 hrs; IL-6 TR-FRET read-out. The procedure, abridged:
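Human PBMCs from fresh donor blood (150,000 cells/well) stimulated 14–16 h at 37 °C with DOTAP-complexed ssRNA40 (final 1 μg/ml for TLR8, 10 μg/mL for TLR7) or ODN2216 (final 0.3 μM, TLR9), 0.25% DMSO, ten-point 1/3 compound dilutions. Supernatant IL-6 read by HTRF (TLR8); IFNα by IFNα2b AlphaLISA (TLR7/TLR9).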

A word on the IC50: it is the point on the concentration scale where inhibition reaches its midpoint.

As for `[2H]C([2H])([2H])N(C([2H])([2H])[2H])C12CCC(Cn3nc(C)c4c3CCN(c3nc(C)nc5c(C)nn(C)c35)C4)(CC1)CC2` [compound 40, 4-((3-methyl-5-(1,3,5-trimethyl-1H-pyrazolo[4,3-d]pyrimidin-7-yl)-4,5,6,7-tetrahydro-1H-pyrazolo[4,3-c]pyridin-1-yl)methyl)-N,N-bis(trideuteromethyl)bicyclo[2.2.2]octan-1-amine], the IC50 was determined as 314 nM.
Consider `Cc1nn(CC23CCC(N)(CC2)CC3)c2c1CN(c1ccnc3[nH]ncc13)CC2` [compound 41, 4-((3-methyl-5-(1H-pyrazolo[3,4-b]pyridin-4-yl)-4,5,6,7-tetrahydro-1H-pyrazolo[4,3-c]pyridin-1-yl)methyl)bicyclo[2.2.2]octan-1-amine], for which the IC50 was 4590 nM.
On to `Cc1c2c(nn1CC13CCC(N)(CC1)CC3)CCN(c1ccnc3[nH]ncc13)C2` [compound 42, 4-((3-methyl-5-(1H-pyrazolo[3,4-b]pyridin-4-yl)-4,5,6,7-tetrahydro-2H-pyrazolo[4,3-c]pyridin-2-yl)methyl)bicyclo[2.2.2]octan-1-amine], for which the IC50 was more than 10000 nM.
As to `Cc1cc(N2CCc3c(c(C)nn3CC34CCC(N)(CC3)C4)C2)c2cnn(C)c2n1` [compound 44, 4-((5-(1,6-dimethyl-1H-pyrazolo[3,4-b]pyridin-4-yl)-3-methyl-4,5,6,7-tetrahydro-1H-pyrazolo[4,3-c]pyridin-1-yl)methyl)bicyclo[2.2.1]heptan-1-amine], the IC50 was found to be 861 nM.
Turning to `Cc1cc(N2CCc3c(c(C(F)(F)F)nn3CC34CCC(N)(CC3)CC4)C2)c2cnn(C)c2n1` [compound 45, 4-((5-(1,6-dimethyl-1H-pyrazolo[3,4-b]pyridin-4-yl)-3-(trifluoromethyl)-4,5,6,7-tetrahydro-1H-pyrazolo[4,3-c]pyridin-1-yl)methyl)bicyclo[2.2.2]octan-1-amine], the IC50 came to 630 nM.
With `Cc1cc(N2CCc3c(c(C)nn3CC34CCC(NCC(=O)N5CCCCC5)(CC3)CC4)C2)c2cnn(C)c2n1` [compound 99, 2-((4-((5-(1,6-dimethyl-1H-pyrazolo[3,4-b]pyridin-4-yl)-3-methyl-4,5,6,7-tetrahydro-1H-pyrazolo[4,3-c]pyridin-1-yl)methyl)bicyclo[2.2.2]octan-1-yl)amino)-1-(piperidin-1-yl)ethanone] the figure was 130 nM.
As for `Cc1cc(N2CCc3c(c(C)nn3CC34CCC(NC(=O)CN5CCCC5)(CC3)CC4)C2)c2cnn(C)c2n1` [compound 100, N-(4-((5-(1,6-dimethyl-1H-pyrazolo[3,4-b]pyridin-4-yl)-3-methyl-4,5,6,7-tetrahydro-1H-pyrazolo[4,3-c]pyridin-1-yl)methyl)bicyclo[2.2.2]octan-1-yl)-2-(pyrrolidin-1-yl)acetamide], the IC50 amounted to 15 nM.
With `COCCNC12CCC(Cn3nc(C)c4c3CCN(c3cc(C)nc5c3cnn5C)C4)(CC1)OC2` [compound 102, 1-((5-(1,6-dimethyl-1H-pyrazolo[3,4-b]pyridin-4-yl)-3-methyl-4,5,6,7-tetrahydro-1H-pyrazolo[4,3-c]pyridin-1-yl)methyl)-N-(2-methoxyethyl)-2-oxabicyclo[2.2.2]octan-4-amine] the figure was 366 nM; with `Cc1cc(N2CCc3c(c(C)nn3CC34CCC(NC(=O)CCN(C)C)(CC3)CC4)C2)c2cnn(C)c2n1` [compound 105, N-(4-((5-(1,6-dimethyl-1H-pyrazolo[3,4-b]pyridin-4-yl)-3-methyl-4,5,6,7-tetrahydro-1H-pyrazolo[4,3-c]pyridin-1-yl)methyl)bicyclo[2.2.2]octan-1-yl)-3-(dimethylamino)propanamide], 27 nM; with `Cc1cc(N2CCc3c(c(C)nn3CC34CCC(NCC(=O)N5CCCC5)(CC3)CC4)C2)c2cnn(C)c2n1` [compound 106, 2-((4-((5-(1,6-dimethyl-1H-pyrazolo[3,4-b]pyridin-4-yl)-3-methyl-4,5,6,7-tetrahydro-1H-pyrazolo[4,3-c]pyridin-1-yl)methyl)bicyclo[2.2.2]octan-1-yl)amino)-1-(pyrrolidin-1-yl)ethanone], 168 nM.
`Cc1cc(N2CCc3c(c(C)nn3CC34CCC(N5CCO[C@H](C)C5)(CC3)CC4)C2)c2cnn(C)c2n1` [compound 107, (R)-4-(4-((5-(1,6-dimethyl-1H-pyrazolo[3,4-b]pyridin-4-yl)-3-methyl-4,5,6,7-tetrahydro-1H-pyrazolo[4,3-c]pyridin-1-yl)methyl)bicyclo[2.2.2]octan-1-yl)-2-methylmorpholine]: the IC50 is 6 nM.
With `Cc1cc(N2CCc3c(c(C)nn3CC34CCC(N5CCO[C@@H](C)C5)(CC3)CC4)C2)c2cnn(C)c2n1` [compound 109, (S)-4-(4-((5-(1,6-dimethyl-1H-pyrazolo[3,4-b]pyridin-4-yl)-3-methyl-4,5,6,7-tetrahydro-1H-pyrazolo[4,3-c]pyridin-1-yl)methyl)bicyclo[2.2.2]octan-1-yl)-2-methylmorpholine] the figure was 16 nM; with `Cc1cc(N2CCc3c(c(C)nn3CC34CCC(N5C[C@@H](C)O[C@@H](C)C5)(CC3)CC4)C2)c2cnn(C)c2n1` [compound 110, (2S,6R)-4-(4-((5-(1,6-dimethyl-1H-pyrazolo[3,4-b]pyridin-4-yl)-3-methyl-4,5,6,7-tetrahydro-1H-pyrazolo[4,3-c]pyridin-1-yl)methyl)bicyclo[2.2.2]octan-1-yl)-2,6-dimethylmorpholine], 16 nM; with `Cc1cc(N2CCc3c(c(C)nn3CC34CCC(N5C[C@H](C)O[C@@H](C)C5)(CC3)CC4)C2)c2cnn(C)c2n1` [compound 111, (2S,6S)-4-(4-((5-(1,6-dimethyl-1H-pyrazolo[3,4-b]pyridin-4-yl)-3-methyl-4,5,6,7-tetrahydro-1H-pyrazolo[4,3-c]pyridin-1-yl)methyl)bicyclo[2.2.2]octan-1-yl)-2,6-dimethylmorpholine], 39 nM.
Regarding `Cc1cc(N2CCc3c(c(C)nn3CC34CCC(NCC5CCC5)(CC3)CO4)C2)c2cnn(C)c2n1` [compound 112, N-(cyclobutylmethyl)-1-((5-(1,6-dimethyl-1H-pyrazolo[3,4-b]pyridin-4-yl)-3-methyl-4,5,6,7-tetrahydro-1H-pyrazolo[4,3-c]pyridin-1-yl)methyl)-2-oxabicyclo[2.2.2]octan-4-amine], the IC50 turned out to be 56 nM.
With `Cc1cc(N2CCc3c(c(C)nn3CC34CCC(N5C[C@@H](C)O[C@H](C)C5)(CC3)CC4)C2)c2cnn(C)c2n1` [compound 113, (2R,6R)-4-(4-((5-(1,6-dimethyl-1H-pyrazolo[3,4-b]pyridin-4-yl)-3-methyl-4,5,6,7-tetrahydro-1H-pyrazolo[4,3-c]pyridin-1-yl)methyl)bicyclo[2.2.2]octan-1-yl)-2,6-dimethylmorpholine] the figure was 16 nM; with `CCNCC(=O)NC12CCC(Cn3nc(C)c4c3CCN(c3cc(C)nc5c3cnn5C)C4)(CC1)CC2` [compound 114, N-(4-((5-(1,6-dimethyl-1H-pyrazolo[3,4-b]pyridin-4-yl)-3-methyl-4,5,6,7-tetrahydro-1H-pyrazolo[4,3-c]pyridin-1-yl)methyl)bicyclo[2.2.2]octan-1-yl)-2-(ethylamino)acetamide], 15 nM.
In the case of `Cc1cc(N2CCc3c(c(C)nn3CC34CCC(NC(=O)CCN)(CC3)CC4)C2)c2cnn(C)c2n1` [compound 115, 3-amino-N-(4-((5-(1,6-dimethyl-1H-pyrazolo[3,4-b]pyridin-4-yl)-3-methyl-4,5,6,7-tetrahydro-1H-pyrazolo[4,3-c]pyridin-1-yl)methyl)bicyclo[2.2.2]octan-1-yl)propanamide] it was 245 nM.
As to `Cc1cc(N2CCc3c(c(C)nn3CC34CCC(N5CC6(COC6)C5)(CC3)CC4)C2)c2cnn(C)c2n1` [compound 116, 6-(4-((5-(1,6-dimethyl-1H-pyrazolo[3,4-b]pyridin-4-yl)-3-methyl-4,5,6,7-tetrahydro-1H-pyrazolo[4,3-c]pyridin-1-yl)methyl)bicyclo[2.2.2]octan-1-yl)-2-oxa-6-azaspiro[3.3]heptane], the IC50 was found to be 68 nM.
